This note sets out measurements from patent publication US11230526B1, “Cylcoalkenyl derivatives useful as agonists of the GPR120 and/or GPR40 receptors” (Janssen Pharmaceutica NV, priority 2018, dated 2022).

One assay has as its target T1, Human GPR120 short form (Homo sapiens, UniProt Q5NUL3).
T1 construct: expressed in transfected cells
T1 sequence (Q5NUL3 1-361): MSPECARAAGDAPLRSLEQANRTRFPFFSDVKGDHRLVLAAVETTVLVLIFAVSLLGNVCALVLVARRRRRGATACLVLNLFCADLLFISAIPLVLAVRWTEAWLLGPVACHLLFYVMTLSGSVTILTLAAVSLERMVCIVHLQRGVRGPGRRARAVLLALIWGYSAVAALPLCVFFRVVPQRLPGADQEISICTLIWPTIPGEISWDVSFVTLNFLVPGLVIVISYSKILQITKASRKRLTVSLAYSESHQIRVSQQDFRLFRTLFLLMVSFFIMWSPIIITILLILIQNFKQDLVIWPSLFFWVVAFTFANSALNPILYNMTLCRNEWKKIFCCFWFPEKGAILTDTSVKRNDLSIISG
Description: Human GPR120 calcium flux assay, Procedure Calcium B (4200 cells/well). Type of assay: cell-based. A digest of the protocol:
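Agonist EC50 came from a four-parameter fit of RFU (Fmax−Fmin) read over 300 s on FLIPR. Cells were HEK293 stably transfected with human GPR120 (NM_001195755.1) at 4200 per well, serum-starved 1 h and loaded with Fluo-4 NW dye with probenecid before ligand addition.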
A general note: Calcium assays in cells follow changes in intracellular calcium, usually with a dye or a luminescent sensor.

In the next assay the target is T2, human GPR40 (Homo sapiens, UniProt O14842).
T2 construct: expressed in transfected cells
T2 sequence (O14842 whole entry): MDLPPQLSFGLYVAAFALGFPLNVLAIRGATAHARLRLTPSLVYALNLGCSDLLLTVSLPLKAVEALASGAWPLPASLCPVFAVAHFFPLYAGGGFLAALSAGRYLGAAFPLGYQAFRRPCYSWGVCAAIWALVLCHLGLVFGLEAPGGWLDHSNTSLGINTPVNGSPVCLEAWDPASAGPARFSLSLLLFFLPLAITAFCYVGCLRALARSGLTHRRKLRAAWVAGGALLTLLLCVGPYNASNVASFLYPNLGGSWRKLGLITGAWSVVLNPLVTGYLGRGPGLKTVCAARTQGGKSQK
The experiment in a line: GPR40 calcium flux assay, human GPR40. In kind it is cell-based. The conditions noted are these: HEK293 cells stably expressing GPR40; table does not say human or rat. A digest of the protocol:
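Cells preincubated 1 h at 37° C. in HBSS, 20 mM HEPES, 0.1% BSA, then Fluo 8 calcium dye 30 min at 37° C. and 15 min at room temperature.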

Each structure is given as a SMILES string.

One may read the EC50 as the concentration needed to bring the measured effect to its halfway point. As for `O=C(O)CCc1ccc(OCC2=C(Cc3ccccc3F)CCC2)cc1C(F)(F)F` [Compound 404, 3-[4-[[2-[(2-fluorophenyl)methyl]cyclopenten-1-yl]methoxy]-2-(trifluoromethyl)phenyl]Propanoic Acid], the concentration for a half-maximal effect (EC50) on Human GPR120 short form was found to be 1910 nM; at human GPR40, 105 nM.
Consider `Cc1ccc(C2=C(COc3cc(C)c(CCC(=O)O)cc3F)CCC2)c(C)c1` [Compound 244, 3-[4-[[2-(2,4-dimethylphenyl)cyclopenten-1-yl]methoxy]-5-fluoro-2-methyl-phenyl]Propanoic Acid], for which the EC50 came to 2240 nM at Human GPR120 short form and 799 nM on human GPR40.
For `CC1(C)CCC(C2CCCC2)=C(COc2ccc(CCC(=O)O)c(C(F)(F)F)c2)C1` [Compound 604, 3-[4-[(2-cyclopentyl-5,5-dimethyl-cyclohexen-1-yl)methoxy]-2-(trifluoromethyl)phenyl]Propanoic Acid], the figures for the EC50 on Human GPR120 short form and at human GPR40 were 2010 nM and 1500 nM, respectively.
Take `O=C(O)CCc1ccc(OCC2=C(C3CCCC3)CCC2)cc1C1CC1` [Compound 444, 3-[4-[(2-cyclopentylcyclopenten-1-yl)methoxy]-2-cyclopropyl-phenyl]Propanoic Acid]: the figures for the EC50 on Human GPR120 short form and on human GPR40 were 319 nM and 174 nM, respectively.
Take `Cc1cc(OCC2=C(c3cc(Cl)ccc3F)CCC2)c(F)cc1CCC(=O)O` [Compound 339, 3-[4-[[2-(5-chloro-2-fluoro-phenyl)cyclopenten-1-yl]methoxy]-5-fluoro-2-methyl-phenyl]Propanoic Acid]: the figures for the concentration for a half-maximal effect (EC50) at Human GPR120 short form and on human GPR40 were 803 nM and 356 nM, respectively.
Taken in the same sequence, the figures for `CC1(C)CCC(C2CCCC2)=C(COc2ccc(CCC(=O)O)c(Cl)c2)C1` [Compound 605, 3-[2-chloro-4-[(2-cyclopentyl-5,5-dimethyl-cyclohexen-1-yl)methoxy]phenyl]Propanoic Acid] were 1170 nM and 852 nM.
Turning to `Cc1cc(OCC2=C(Cc3ccc(F)cc3)CCC2)c(F)cc1CCC(=O)O` [Compound 350, 3-[5-fluoro-4-[[2-[(4-fluorophenyl)methyl]cyclopenten-1-yl]methoxy]-2-methyl-phenyl]Propanoic Acid], the results for the EC50 on Human GPR120 short form and at human GPR40 were 1770 nM and 669 nM, respectively.
Taken in the same sequence, the figures for `CCCCC1=C(COc2ccc(CCC(=O)O)cc2)CCCC1` [Compound 588, 3-[4-[(2-butylcyclohexen-1-yl)methoxy]phenyl]Propanoic Acid] were 1140 nM and 1920 nM.
In the case of `COc1ccc(C2=C(COc3ccc(CCC(=O)O)cc3C)CCC2)cn1` [Compound 218, 3-[4-[[2-(6-methoxy-3-pyridyl)cyclopenten-1-yl]methoxy]-3-methyl-phenyl]Propanoic Acid], the EC50 on Human GPR120 short form was 89 nM; at human GPR40 it was greater than 5000 nM.
Taken in the same sequence, the figures for `Cc1ccc(F)c(C2=C(COc3cc(C)c(CCC(=O)O)cc3F)CCC2)c1` [Compound 340, 3-[5-fluoro-4-[[2-(2-fluoro-5-methyl-phenyl)cyclopenten-1-yl]methoxy]-2-methyl-phenyl]Propanoic Acid] were 743 nM and 944 nM.
Taken in the same sequence, the figures for `CC(C)C1=C(COc2ccc(CCC(=O)O)c(Cl)c2)CCCC1` [Compound 587, 3-[2-chloro-4-[(2-isopropylcyclohexen-1-yl)methoxy]phenyl]Propanoic Acid] were 1140 nM and 99 nM.
For the compound `CC1CCC(COc2ccc(CCC(=O)O)c(Cl)c2)=C1c1ccc(Cl)cc1` (stereo not drawn) [Compound 327, 3-[2-chloro-4-[[2-(4-chlorophenyl)-3-methyl-cyclopenten-1-yl]methoxy]phenyl]Propanoic Acid], the figures for the EC50 on Human GPR120 short form and at human GPR40 were 983 nM and 205 nM, respectively.
Turning to `O=C(O)CCc1ccc(OCC2=C(C3(F)CCC3)CC(F)(F)C2)cc1C(F)(F)F` [Compound 429, 3-[4-[[4,4-difluoro-2-(1-fluorocyclobutyl)cyclopenten-1-yl]methoxy]-2-(trifluoromethyl)phenyl]Propanoic Acid], the EC50 at Human GPR120 short form worked out at 844 nM; on human GPR40 it was 89 nM.
In the case of `CCc1ccc(C2=C(COc3ccc(CCC(=O)O)c(Cl)c3)CCC2)cc1` [Compound 293, 3-[2-chloro-4-[[2-(4-ethylphenyl)cyclopenten-1-yl]methoxy]phenyl]Propanoic Acid], the 50% effective concentration (EC50) turned out to be 2180 nM at Human GPR120 short form and 4240 nM on human GPR40.
Taken in the same sequence, the figures for `O=C(O)CCc1ccc(OCC2=C(c3ccc(OC(F)(F)F)cc3)CCC2)cc1Cl` [Compound 311, 3-[2-chloro-4-[[2-[4-(trifluoromethoxy)phenyl]cyclopenten-1-yl]methoxy]phenyl]Propanoic Acid] were greater than 5000 nM and 792 nM.
For the compound `CCCC1=C(COc2ccc(CCC(=O)O)cc2)CCCC1` [Compound 589, 3-[4-[(2-propylcyclohexen-1-yl)methoxy]phenyl]Propanoic Acid], the values for the EC50 on Human GPR120 short form and on human GPR40 were 3150 nM and 2390 nM, respectively.
Taken in the same sequence, the figures for `CC(O)c1cc(OCC2=C(C3CCCC3)CCC2)ccc1CCC(=O)O` (stereo not drawn) [Compound 443, 3-[4-[(2-cyclopentylcyclopenten-1-yl)methoxy]-2-(1-hydroxyethyl)phenyl]Propanoic Acid] were greater than 5000 nM and 1580 nM.
Taken in the same sequence, the figures for `O=C(O)CCc1ccc(OCC2=C(C3CCC3)CCC2)cc1C(F)(F)F` [Compound 399, 3-[4-[(2-cyclobutylcyclopenten-1-yl)methoxy]-2-(trifluoromethyl)phenyl]Propanoic Acid] were 671 nM and 15 nM.
Consider `Cc1c(CCC(=O)O)ccc(OCC2=C(c3ccc(Cl)cc3)CCCCC2)c1C` [Compound 615, 3-[4-[[2-(4-chlorophenyl)cyclohepten-1-yl]methoxy]-2,3-dimethyl-phenyl]Propanoic Acid], for which the values for the concentration for a half-maximal effect (EC50) on Human GPR120 short form and at human GPR40 were 172 nM and greater than 10000 nM, respectively.
On to `CC(C)CC1=C(COc2ccc(CCC(=O)O)c(Cl)c2)CCC1` [Compound 394, 3-[2-chloro-4-[(2-isobutylcyclopenten-1-yl)methoxy]phenyl]Propanoic Acid], for which the concentration for a half-maximal effect (EC50) stood at 1410 nM at Human GPR120 short form and 129 nM at human GPR40.
In the same order, the values of `Cc1c(CCC(=O)O)ccc(OCC2=C(c3ccc(Cl)cc3)C(C(C)C)CC2)c1C` (stereo not drawn) [Compound 46, 3-[4-[[2-(4-chlorophenyl)-3-isopropyl-cyclopenten-1-yl]methoxy]-2,3-dimethyl-phenyl]Propanoic Acid] are greater than 5000 nM and greater than 5000 nM.
On to `CC1CCC(COc2ccc(CCC(=O)O)c(C(F)(F)F)c2)=C1c1ccc(Cl)cc1` (stereo not drawn) [Compound 316, 3-[4-[[2-(4-chlorophenyl)-3-methyl-cyclopenten-1-yl]methoxy]-2-(trifluoromethyl)phenyl]Propanoic Acid], for which the EC50 on Human GPR120 short form stood at 2430 nM; on human GPR40, 164 nM.
Taken in the same sequence, the figures for `O=C(O)CCc1ccc(OCC2=C(C3CCCC3)CCC2)cc1C(F)(F)F` [Compound 398, 3-[4-[(2-cyclopentylcyclopenten-1-yl)methoxy]-2-(trifluoromethyl)phenyl]Propanoic Acid] were 556 nM and 8 nM.
As for `Cc1cc(OCC2=C(c3ccc(Cl)cc3)CCC2)c(F)cc1CCC(=O)O` [Compound 289, 3-[4-[[2-(4-chlorophenyl)cyclopenten-1-yl]methoxy]-5-fluoro-2-methyl-phenyl]Propanoic Acid], the half-maximal effective concentration (EC50) came to 219 nM on Human GPR120 short form and 1010 nM at human GPR40.
For the compound `O=C(O)CCc1ccc(OCC2=C(C3CCCC3)CCC(F)(F)CC2)cc1` [Compound 611, 3-[4-[(2-cyclopentyl-5,5-difluoro-cyclohepten-1-yl)methoxy]phenyl]Propanoic Acid], the results for the EC50 on Human GPR120 short form and on human GPR40 were 312 nM and 733 nM, respectively.
As to `O=C(O)CCc1cc(F)c(OCC2=C(c3ccc(Cl)cc3)CCC2)cc1C(F)(F)F` [Compound 91, 3-[4-[[2-(4-chlorophenyl)cyclopenten-1-yl]methoxy]-5-fluoro-2-(trifluoromethyl)phenyl]Propanoic Acid], the EC50 at Human GPR120 short form and on human GPR40 was greater than 5000 nM in each case.
As for `Cc1cc(OCC2=C(Cc3ccccc3)CCC2)c(F)cc1CCC(=O)O` [Compound 314, 3-[4-[(2-benzylcyclopenten-1-yl)methoxy]-5-fluoro-2-methyl-phenyl]Propanoic Acid], the values for the EC50 on Human GPR120 short form and on human GPR40 were 765 nM and 461 nM, respectively.
As for `O=C(O)CCc1ccc(OCC2=C(C3=CCCCC3)CCC2)cc1` [Compound 230, 3-[4-[[2-(cyclohexen-1-yl)cyclopenten-1-yl]methoxy]phenyl]Propanoic Acid], the results for the EC50 on Human GPR120 short form and at human GPR40 were 1870 nM and greater than 5000 nM, respectively.
Taken in the same sequence, the figures for `COc1ccc(C2=C(COc3ccc(CCC(=O)O)c(C(F)(F)F)c3)CCC2)c(C)c1` [Compound 287, 3-[4-[[2-(4-methoxy-2-methyl-phenyl)cyclopenten-1-yl]methoxy]-2-(trifluoromethyl)phenyl]Propanoic Acid] were greater than 5000 nM and 153 nM.
In the same order, the values of `O=C(O)CCc1ccc(OCC2=C(C3CCC3)CCCC2)cc1C(F)(F)F` [Compound 599, 3-[4-[(2-cyclobutylcyclohexen-1-yl)methoxy]-2-(trifluoromethyl)phenyl]Propanoic Acid] are 1350 nM and 98 nM.
